# Target: T1, TRPV3 (hTRPV3, transient receptor potential vanilloid 3) (Homo sapiens, UniProt Q8NET8)
# T1 construct: hTRPV3 (NM_145068.4)
# T1 sequence (Q8NET8 1-790): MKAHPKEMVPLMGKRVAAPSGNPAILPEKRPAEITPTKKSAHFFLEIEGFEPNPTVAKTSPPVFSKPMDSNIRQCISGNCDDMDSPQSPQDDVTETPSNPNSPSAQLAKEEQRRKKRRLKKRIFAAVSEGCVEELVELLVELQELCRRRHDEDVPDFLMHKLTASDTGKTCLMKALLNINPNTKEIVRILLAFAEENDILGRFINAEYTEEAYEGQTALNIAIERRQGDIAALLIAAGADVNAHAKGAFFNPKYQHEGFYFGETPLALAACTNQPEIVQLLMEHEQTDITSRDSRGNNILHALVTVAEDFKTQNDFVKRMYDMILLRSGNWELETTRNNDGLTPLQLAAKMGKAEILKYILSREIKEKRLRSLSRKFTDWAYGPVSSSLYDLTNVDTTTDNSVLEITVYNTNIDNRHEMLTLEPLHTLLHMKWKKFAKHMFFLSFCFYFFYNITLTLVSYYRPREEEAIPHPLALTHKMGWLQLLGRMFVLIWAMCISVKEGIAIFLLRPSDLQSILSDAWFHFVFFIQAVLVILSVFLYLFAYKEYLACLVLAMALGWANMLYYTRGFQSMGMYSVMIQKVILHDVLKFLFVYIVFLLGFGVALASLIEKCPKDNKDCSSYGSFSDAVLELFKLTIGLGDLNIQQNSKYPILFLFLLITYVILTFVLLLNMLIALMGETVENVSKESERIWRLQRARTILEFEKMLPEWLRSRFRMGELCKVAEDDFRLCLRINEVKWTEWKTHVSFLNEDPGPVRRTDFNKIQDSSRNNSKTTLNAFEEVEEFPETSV
# Test: whole-cell and inside-out single-channel patch clamp in HEK293T cells; site-directed mutagenesis
# Format: cell-based
structure (smiles),measurement,value
C[C@@H]1O[C@@H](O[C@@H]2[C@@H](O)[C@H](OCCc3ccc(O)c(O)c3)O[C@H](CO[C@@H]3O[C@H](CO)[C@@H](O)[C@H](O)[C@H]3O)[C@H]2OC(=O)/C=C/c2ccc(O)c(O)c2)[C@H](O)[C@H](O)[C@H]1O [echinacoside],IC50,21.9 ± 1.28 µM

# Reference: publication PMC12073194, “Echinacoside Ameliorates UVB-Induced Skin Damage Through Selective Inhibition of the Cutaneous TRPV3 Channel” (Molecules, 2025)
